For the assay, the target named is T1, RPMI 8866 cells (Homo sapiens, UniProt P13612+P26010).
T1 sequence (P13612 34-1032): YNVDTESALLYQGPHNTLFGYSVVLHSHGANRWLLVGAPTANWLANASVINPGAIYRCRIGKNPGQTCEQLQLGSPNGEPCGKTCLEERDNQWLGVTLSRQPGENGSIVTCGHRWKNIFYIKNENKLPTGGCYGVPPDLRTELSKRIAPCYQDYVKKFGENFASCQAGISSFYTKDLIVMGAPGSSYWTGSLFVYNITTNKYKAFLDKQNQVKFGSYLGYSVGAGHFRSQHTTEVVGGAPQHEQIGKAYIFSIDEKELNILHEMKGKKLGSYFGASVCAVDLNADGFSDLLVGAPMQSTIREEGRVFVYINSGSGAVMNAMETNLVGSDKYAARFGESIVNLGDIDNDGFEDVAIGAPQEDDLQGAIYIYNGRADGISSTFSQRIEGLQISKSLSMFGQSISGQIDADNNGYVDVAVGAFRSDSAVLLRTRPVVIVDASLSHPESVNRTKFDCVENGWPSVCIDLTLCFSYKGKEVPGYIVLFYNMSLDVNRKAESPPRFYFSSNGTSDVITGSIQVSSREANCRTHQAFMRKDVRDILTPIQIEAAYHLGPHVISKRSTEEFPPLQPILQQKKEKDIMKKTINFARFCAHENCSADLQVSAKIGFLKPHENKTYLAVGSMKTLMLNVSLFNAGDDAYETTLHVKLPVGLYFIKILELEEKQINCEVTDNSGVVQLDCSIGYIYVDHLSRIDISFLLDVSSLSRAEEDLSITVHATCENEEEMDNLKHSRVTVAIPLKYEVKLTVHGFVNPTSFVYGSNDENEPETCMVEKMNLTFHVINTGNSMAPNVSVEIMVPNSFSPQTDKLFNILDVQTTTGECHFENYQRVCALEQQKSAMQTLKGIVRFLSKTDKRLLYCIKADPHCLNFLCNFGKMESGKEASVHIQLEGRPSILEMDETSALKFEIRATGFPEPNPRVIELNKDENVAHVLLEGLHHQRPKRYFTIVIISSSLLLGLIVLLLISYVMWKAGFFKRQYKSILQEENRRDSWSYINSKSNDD
T1 sequence (P26010 20-798): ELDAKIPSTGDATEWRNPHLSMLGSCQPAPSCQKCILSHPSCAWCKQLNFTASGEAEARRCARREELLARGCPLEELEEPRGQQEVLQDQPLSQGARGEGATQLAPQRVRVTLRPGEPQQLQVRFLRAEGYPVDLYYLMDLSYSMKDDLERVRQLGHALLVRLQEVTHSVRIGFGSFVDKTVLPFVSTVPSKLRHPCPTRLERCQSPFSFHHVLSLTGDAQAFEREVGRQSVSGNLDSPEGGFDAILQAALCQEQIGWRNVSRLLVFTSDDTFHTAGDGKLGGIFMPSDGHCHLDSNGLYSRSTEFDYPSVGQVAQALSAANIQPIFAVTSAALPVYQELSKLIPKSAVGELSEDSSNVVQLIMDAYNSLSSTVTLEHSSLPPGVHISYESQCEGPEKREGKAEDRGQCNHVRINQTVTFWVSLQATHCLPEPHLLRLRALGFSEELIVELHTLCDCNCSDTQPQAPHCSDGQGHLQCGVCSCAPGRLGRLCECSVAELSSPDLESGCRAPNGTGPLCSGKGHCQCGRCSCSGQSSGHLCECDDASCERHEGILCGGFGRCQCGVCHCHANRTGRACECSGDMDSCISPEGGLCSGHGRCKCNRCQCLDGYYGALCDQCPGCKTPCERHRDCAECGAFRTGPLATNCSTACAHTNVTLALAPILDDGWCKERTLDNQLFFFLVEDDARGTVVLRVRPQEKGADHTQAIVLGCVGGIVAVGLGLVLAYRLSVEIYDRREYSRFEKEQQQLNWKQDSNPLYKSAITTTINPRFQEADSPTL
Kind of assay: α4β7-MAdCAM Cell Adhesion Assay. The format is cell-based. The conditions noted are these: read-out: Cell-Adhesion A4B7. The procedure, abridged:
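Peptide inhibition of adhesion measured with MAdCAM-1/Fc chimera immobilised at 200 ng/well and MnCl2-activated (1 mM) RPMI 8866 cells, 30-45 min at 37° C. Adherent cells remaining after three washes detected by MTT reduction at 570 nm, corrected for no-cell wells, giving dose response.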

[1] abbreviates: thioether monomer peptides, Table 6.

These results are taken from patent publication US20260217767A1, “NOVEL A4B7 THIOETHER PEPTIDE DIMER ANTAGONISTS” (Protagonist Therapeutics, Inc., priority 2014, published 2026).

Like-named read-outs stand apart in the source and are kept apart here. Where a SMILES comes first, the peptide text is derived from it.

In the case of `CC(C)C[C@@H]1NC(=O)[C@H]([C@@H](C)O)NC(=O)[C@H](CC(=O)O)NC(=O)[C@H](CO)NC(=O)[C@H](CCCNC(=N)N)N(C)C(=O)C(C)SC[C@@H](C(=O)N[C@@H](Cc2c[nH]c3ccccc23)C(=O)N[C@H](CCCCN)C(N)=O)NC1=O` (single isomer, unassigned) [compound 144], the IC50 (thioether peptide dimers, Table 7) was more than 1000 nM.

For the molecule `CC(C)C[C@@H]1NC(=O)[C@H]([C@@H](C)O)NC(=O)[C@H](CC(=O)O)NC(=O)[C@H](CO)NC(=O)[C@H](CCCNC(=N)N)N(C)C(=O)c2ccccc2CSC[C@@H](C(=O)N[C@@H](Cc2c[nH]c3ccccc23)C(=O)N[C@@H](CCC(=O)O)C(=O)N[C@H](CCCCN)C(N)=O)NC1=O` [compound 55] (HELM PEPTIDE1{[meR].S.D.T.L.C.W.E.[dK].[am]}|CHEM1{[O=C(c1ccccc1C[*:2])[*:1]]}$PEPTIDE1,CHEM1,1:R1-1:R1|PEPTIDE1,CHEM1,6:R3-1:R2$$$V2.0), the IC50 under setting [1] fell in the range of 100 to 1000 nM. Regarding `CC(C)C[C@@H]1NC(=O)[C@H]([C@@H](C)O)NC(=O)[C@H](CC(=O)O)NC(=O)[C@H](CO)NC(=O)[C@H](CCCNC(=N)N)N(C)C(=O)c2ccccc2CSC(C)(C)[C@@H](C(=O)N[C@@H](Cc2cccc3ccccc23)C(=O)N[C@H](CCC(=O)O)C(=O)N(C)[C@@H](CCCCN)C(N)=O)NC1=O` [compound 69] (HELM PEPTIDE1{[meR].S.D.T.L.[Pen].[O=C([C@H](Cc1cccc2ccccc12)N[*:1])[*:2]].[dE].[meK].[am]}|CHEM1{[O=C(c1ccccc1C[*:2])[*:1]]}$PEPTIDE1,CHEM1,1:R1-1:R1|PEPTIDE1,CHEM1,6:R3-1:R2$$$V2.0), under setting [1], the IC50 fell in the range of 100 to 1000 nM.

As to `CC(=O)NCCCC[C@@H](NC(=O)[C@H](CCC(=O)O)NC(=O)[C@H](Cc1c[nH]c2ccccc12)NC(=O)[C@H]1NC(=O)[C@H](CC(C)C)NC(=O)[C@H]([C@@H](C)O)NC(=O)[C@H](CC(=O)O)NC(=O)[C@H](CO)NC(=O)[C@H](CCCNC(=N)N)N(C)C(=O)c2ccccc2CSC1(C)C)C(N)=O` [compound 80] (HELM PEPTIDE1{[meR].S.D.T.L.[Pen].W.E.[dK].[am]}|PEPTIDE2{[ac]}|CHEM1{[O=C(c1ccccc1C[*:2])[*:1]]}$PEPTIDE1,PEPTIDE2,9:R3-1:R2|PEPTIDE1,CHEM1,1:R1-1:R1|PEPTIDE1,CHEM1,6:R3-1:R2$$$V2.0), the IC50 under setting [1] is 25 to 100 nM. Still for that read-out and setting: under `CC(=O)NCCCC[C@@H](NC(=O)[C@@H](CCC(=O)O)NC(=O)[C@H](Cc1c[nH]c2ccccc12)NC(=O)[C@H]1NC(=O)[C@H](CC(C)C)NC(=O)[C@H]([C@@H](C)O)NC(=O)[C@H](CC(=O)O)NC(=O)[C@H](CO)NC(=O)[C@H](CCCNC(=N)N)N(C)C(=O)c2ccccc2CSC1(C)C)C(N)=O` [compound 81] (HELM PEPTIDE1{[meR].S.D.T.L.[Pen].W.[dE].[dK].[am]}|PEPTIDE2{[ac]}|CHEM1{[O=C(c1ccccc1C[*:2])[*:1]]}$PEPTIDE1,PEPTIDE2,9:R3-1:R2|PEPTIDE1,CHEM1,1:R1-1:R1|PEPTIDE1,CHEM1,6:R3-1:R2$$$V2.0) stands 25 to 100 nM; under `CC(=O)NCCCC[C@@H](NC(=O)[C@H](CCC(=O)O)NC(=O)[C@H](Cc1cccc2ccccc12)NC(=O)[C@H]1NC(=O)[C@H](CC(C)C)NC(=O)[C@H]([C@@H](C)O)NC(=O)[C@H](CC(=O)O)NC(=O)[C@H](CO)NC(=O)[C@H](CCCNC(=N)N)N(C)C(=O)c2ccccc2CSC1(C)C)C(N)=O` [compound 89] (HELM PEPTIDE1{[meR].S.D.T.L.[Pen].[O=C([C@H](Cc1cccc2ccccc12)N[*:1])[*:2]].E.[dK].[am]}|PEPTIDE2{[ac]}|CHEM1{[O=C(c1ccccc1C[*:2])[*:1]]}$PEPTIDE1,PEPTIDE2,9:R3-1:R2|PEPTIDE1,CHEM1,1:R1-1:R1|PEPTIDE1,CHEM1,6:R3-1:R2$$$V2.0), 100 to 1000 nM. Same read-out and setting: in the case of `CC(=O)NCCCC[C@@H](NC(=O)[C@@H](CCC(=O)O)NC(=O)[C@H](Cc1ccc(O)cc1)NC(=O)[C@H]1NC(=O)[C@H](CC(C)C)NC(=O)[C@H]([C@@H](C)O)NC(=O)[C@H](CC(=O)O)NC(=O)[C@H](CO)NC(=O)[C@H](CCCNC(=N)N)N(C)C(=O)c2ccccc2CSC1(C)C)C(N)=O` [compound 91] (HELM PEPTIDE1{[meR].S.D.T.L.[Pen].Y.[dE].[dK].[am]}|PEPTIDE2{[ac]}|CHEM1{[O=C(c1ccccc1C[*:2])[*:1]]}$PEPTIDE1,PEPTIDE2,9:R3-1:R2|PEPTIDE1,CHEM1,1:R1-1:R1|PEPTIDE1,CHEM1,6:R3-1:R2$$$V2.0) it was 100 to 1000 nM; in that of `CC(C)C[C@@H]1NC(=O)[C@H]([C@@H](C)O)NC(=O)[C@H](CC(=O)O)NC(=O)[C@H](CO)NC(=O)[C@H](CCCNC(=N)N)N(C)C(=O)c2ccccc2CSC(C)(C)[C@@H](C(=O)N[C@@H](Cc2c[nH]c3ccccc23)C(=O)N[C@@H](CCC(=O)O)C(=O)N[C@@H](CN)C(N)=O)NC1=O` [compound 92] (HELM PEPTIDE1{[meR].S.D.T.L.[Pen].W.E.[NC[C@H](N[*:1])C(=O)[*:2]].[am]}|CHEM1{[O=C(c1ccccc1C[*:2])[*:1]]}$PEPTIDE1,CHEM1,1:R1-1:R1|PEPTIDE1,CHEM1,6:R3-1:R2$$$V2.0), 25 to 100 nM; in that of `CC(C)C[C@@H]1NC(=O)[C@H]([C@@H](C)O)NC(=O)[C@H](CC(=O)O)NC(=O)[C@H](CO)NC(=O)[C@H](CCCNC(=N)N)N(C)C(=O)c2ccccc2CSC(C)(C)[C@@H](C(=O)N[C@@H](Cc2c[nH]c3ccccc23)C(=O)N[C@@H](CCC(=O)O)C(=O)N[C@@H](CCN)C(N)=O)NC1=O` [compound 93] (HELM PEPTIDE1{[meR].S.D.T.L.[Pen].W.E.[Dab].[am]}|CHEM1{[O=C(c1ccccc1C[*:2])[*:1]]}$PEPTIDE1,CHEM1,1:R1-1:R1|PEPTIDE1,CHEM1,6:R3-1:R2$$$V2.0), 25 to 100 nM. Turning to `CC(C)C[C@@H]1NC(=O)[C@H]([C@@H](C)O)NC(=O)[C@H](CC(=O)O)NC(=O)[C@H](CO)NC(=O)[C@H](CCCNC(=N)N)N(C)C(=O)c2ccccc2CSC(C)(C)[C@@H](C(=O)N[C@@H](Cc2c[nH]c3ccccc23)C(=O)N[C@H](CCC(=O)O)C(=O)N[C@@H](CN)C(N)=O)NC1=O` [compound 94] (HELM PEPTIDE1{[meR].S.D.T.L.[Pen].W.[dE].[NC[C@H](N[*:1])C(=O)[*:2]].[am]}|CHEM1{[O=C(c1ccccc1C[*:2])[*:1]]}$PEPTIDE1,CHEM1,1:R1-1:R1|PEPTIDE1,CHEM1,6:R3-1:R2$$$V2.0), under setting [1], the IC50 is 100 to 1000 nM. Take `CC(C)C[C@@H]1NC(=O)[C@H]([C@@H](C)O)NC(=O)[C@H](CC(=O)O)NC(=O)[C@H](CO)NC(=O)[C@H](CCCNC(=N)N)N(C)C(=O)c2ccccc2CSC(C)(C)[C@@H](C(=O)N[C@@H](Cc2c[nH]c3ccccc23)C(=O)N[C@H](CCC(=O)O)C(=O)N[C@@H](CCN)C(N)=O)NC1=O` [compound 95] (HELM PEPTIDE1{[meR].S.D.T.L.[Pen].W.[dE].[Dab].[am]}|CHEM1{[O=C(c1ccccc1C[*:2])[*:1]]}$PEPTIDE1,CHEM1,1:R1-1:R1|PEPTIDE1,CHEM1,6:R3-1:R2$$$V2.0): under setting [1], the IC50 fell in the range of 100 to 1000 nM. On to `CC(C)C[C@@H]1NC(=O)[C@H]([C@@H](C)O)NC(=O)[C@H](CC(=O)O)NC(=O)[C@H](CO)NC(=O)[C@H](CCCNC(=N)N)N(C)C(=O)c2ccccc2CSC(C)(C)[C@@H](C(=O)N[C@@H](Cc2c[nH]c3ccccc23)C(=O)N[C@@H](CCC(=O)O)C(N)=O)NC1=O` [compound 96] (HELM PEPTIDE1{[meR].S.D.T.L.[Pen].W.E.[am]}|CHEM1{[O=C(c1ccccc1C[*:2])[*:1]]}$PEPTIDE1,CHEM1,1:R1-1:R1|PEPTIDE1,CHEM1,6:R3-1:R2$$$V2.0), for which the IC50 under setting [1] was 100 to 1000 nM.
